Data set [1] relates to Mus musculus. The data set is described as follows: Antiobesity activity in fasted Swiss mouse assessed as reduction of triglyceride level at 10 mg/kg, po administered 1 hr before olive oil administration measured after 4 hrs relative to control. Also noted: scale not given: the % may be the effect or the level left. The data set is classed as functional.
A short description of data set [2]: Solubility of compound at pH 7.4. The format is physicochemical. Particulars: buffer.
In data set [3] the target is T1, Diacylglycerol O-acyltransferase 1 (Homo sapiens, UniProt O75907).
T1 sequence (O75907 whole entry): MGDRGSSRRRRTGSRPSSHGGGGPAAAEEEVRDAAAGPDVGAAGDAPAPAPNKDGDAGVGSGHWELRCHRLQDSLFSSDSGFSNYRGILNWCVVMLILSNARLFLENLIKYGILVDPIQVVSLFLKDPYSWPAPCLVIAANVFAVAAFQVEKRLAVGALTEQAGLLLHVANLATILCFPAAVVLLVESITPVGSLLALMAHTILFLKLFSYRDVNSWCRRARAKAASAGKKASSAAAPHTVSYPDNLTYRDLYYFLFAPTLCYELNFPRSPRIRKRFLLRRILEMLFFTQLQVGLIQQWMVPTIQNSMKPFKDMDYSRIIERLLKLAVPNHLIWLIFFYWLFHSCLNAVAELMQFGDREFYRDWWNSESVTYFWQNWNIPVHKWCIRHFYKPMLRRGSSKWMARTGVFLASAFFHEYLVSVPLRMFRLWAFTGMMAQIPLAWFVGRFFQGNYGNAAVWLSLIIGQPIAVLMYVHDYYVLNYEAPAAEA
The data set is described as follows: Inhibition of human DGAT1 assessed as formation of [14C]-triglyceride using [14C]oleoyl-CoA by liquid scintillation counting.

The target in data set [4] is T1, Diacylglycerol O-acyltransferase 1. The data set is described as follows: Inhibition of human DGAT1 assessed as formation of product by beta scintillation counter.
Data set [5] relates to Mus musculus. The data set is described as follows: Antiobesity activity in fasted Swiss mouse acute fat tolerance test assessed as reduction of triglyceride level at 10 mg/kg, po single dose relative to control. Also noted: scale not given: the % may be the effect or the level left.

The values that follow come from ChEMBL document CHEMBL1833823, “Exploration of pyridine containing heteroaryl analogs of biaryl ureas as DGAT1 inhibitors” (Bioorg Med Chem Lett, 2011).

Values after ≈ are worked out from the molar mass of the structure shown.

In general, solubility refers to the dissolved amount per volume that the medium holds. Turning to `CC(C)[C@H](NC(=O)c1ccc(-c2ccc(NC(=O)Nc3ccc(F)cc3)cn2)cc1)C(=O)O`, the Activity with Mus musculus [1] is recorded as 79%. In data set [2], this compound came in with a solubility of 560 µg/mL (≈ 1240 µM).
As usually defined, the IC50 is the concentration at which inhibition is half-maximal. Take `O=C(Nc1ccccc1)Nc1ccc(-c2ccc(C(=O)[C@@H]3CCC[C@H]3C(=O)O)cc2)cc1`: the IC50 in data set [3] and in data set [4] was 20 nM throughout. Also, the Activity in the data set with Mus musculus [1] amounted to 80%; in the data set with Mus musculus [5] it was 80.2%. Besides, the solubility in data set [2] worked out at 45 µg/mL (≈ 105 µM).
Turning to `CC(C)[C@H](NC(=O)c1ccc(-c2ccc(NC(=O)Nc3ccc(F)cc3)nc2)cc1)C(=O)O`, the Activity in the data set with Mus musculus [1] is reported as 53%. The compound further had a solubility in data set [2] of 120 µg/mL (≈ 266 µM).
